Test results taken from patent US20060105361A1, “Donor yeast strain for transfer of genetic material” (priority 2004, published 2006).

System: wild-type strains
Experiment: Spot tests of yeast strains on SD-leu plates containing camptothecin and CuSO4
Assay type: cell-based, Saccharomyces cerevisiae
Experimental: The mutant and wild-type TOP1 were cloned under the control of the copper-inducible CUP1 promoter. These plasmids were transformed into the MATa universal donor strain (J1361), the MATalpha deletion library wild-type strain (BY4742) and rad9 and rad50 deletion strains from the library. Transformation reactions were plated on SD-leu media and incubated for 3 days at 30° C. to allow colony growth. […] B. Transformants from A were grown overnight in liquid SD-leu media, equalized by OD, serially diluted and spotted onto SD-leu plates containing the indicated concentrations of CuSO4. Each panel is a group of three strains containing the vector, TOP1 or TOP1-T722A plasmids as indicated on the right. […] Spot tests shown at the bottom contain 5 μg/ml camptothecin.

## CC[C@@]1(O)C(=O)OCc2c1cc1n(c2=O)Cc2cc3ccccc3nc2-1 [camptothecin]
5 μg/ml camptothecin, wild-type cells with CUP1-promoter TOP1-T722A plasmid, graded CuSO4
  sensitivity (viability in spot test) of strains containing the TOP1-T722A plasmid: roughly additive effect of the TOP1-T722A mutant in conjunction with camptothecin
5 μg/ml camptothecin, wild-type strain (BY4742) with CUP1-promoter TOP1 plasmid, graded CuSO4
  sensitivity (viability in spot test) of strains containing the TOP1 plasmid: only sensitive to the drug when Top1 is overexpressed by 100 μM copper
Library strain is TOP1, relatively low doses of drug, no TOP1 overexpression
  viability of the library strain on plates containing camptothecin: do not affect viability
